# Patent US20230295087A1, “AGONISTS OF ROR GAMMAt” (BRISTOL-MYERS SQUIBB COMPANY, priority 2019, published 2023)
# Target: T1, human RORgT (Homo sapiens, UniProt P51449)
# T1 construct: expressed in transfected cells
# T1 sequence (P51449 267-516): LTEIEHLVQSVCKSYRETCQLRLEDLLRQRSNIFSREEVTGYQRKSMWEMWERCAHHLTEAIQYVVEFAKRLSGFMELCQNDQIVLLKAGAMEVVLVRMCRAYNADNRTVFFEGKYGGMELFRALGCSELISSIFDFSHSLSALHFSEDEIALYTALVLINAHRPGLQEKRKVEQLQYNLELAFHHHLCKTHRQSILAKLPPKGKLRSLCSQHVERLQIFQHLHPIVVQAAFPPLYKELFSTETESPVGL
# Test: RORgT Gal4 Luciferase Reporter Gene Assay
# Type: cell-based
# Conditions: engineered Jurkat cells overexpressing RORgT (LBD or full length) fused with Gal4 Luc reporter; 18 hours at 37° C.; luminescence
# Method in brief: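 Jurkat cells expressing Gal4 Luc with either RORgT LBD (aa267-516) or full-length human RORgT, 10,000 cells/well, treated with compound (40 µM to 0.67 nM final, 3-fold dilutions) for 18 h at 37° C. Steady-Glo luminescence read; inhibition of constitutive activity as % signal-window reduction relative to a control compound.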
row,Compound,EC50 [nM]
1,"O=C(C1CCS(=O)(=O)CC1)N1CC[C@@]2(S(=O)(=O)c3ccc(F)cc3)c3ccc(Cc4ccccc4)cc3CC[C@@H]12 [Example 31, 4-[(3aR,9bR)-7-benzyl-9b-(4-fluorobenzenesulfonyl)-1H,2H,3H,3aH,4H,5H,9bH-benzo[e]indole-3-carbonyl]-1λ^6-thiane-1,1-dione]",1.6
2,"O=C(O)[C@H]1CC[C@H](C(=O)N2CC[C@@]3(S(=O)(=O)c4ccc(F)cc4)c4ccc(CCc5c(Cl)cccc5Cl)cc4CC[C@@H]23)CC1 [Example 2, (1r,4r)-4-[(3aR,9bR)-7-[2-(2,6-dichlorophenyl)ethyl]-9b-(4-fluorobenzenesulfonyl)-1H,2H,3H,3aH,4H,5H,9bH-benzo[e]indole-3-carbonyl]cyclohexane-1-carboxylic acid]",6.8
3,"(1R,4r)-4-((3aR,9bR)-7-((2-chloro-6-fluorobenzyl)oxy)-9b-((4-fluorophenyl)sulfonyl)-2,3,3a,4,5,9b-hexahydro-1H-benzo[e]indole-3-carbonyl)-1-methylcyclohexanecarboxylic acid [Example 8]",12
4,"CC(C)(C)OC(=O)N1CC[C@@]2(S(=O)(=O)c3ccc(F)cc3)c3ccc(Cc4ccccc4)cc3CC[C@@H]12 [Example 53, ert-butyl (3aR,9bR)-7-benzyl-9b-(4-fluorobenzenesulfonyl)-1H,2H,3H,3aH,4H,5H,9bH-benzo[e]indole-3-carboxylate]",16
5,"Cc1ccccc1Oc1ccc2c(c1)CC[C@H]1N(C(=O)C3(C)CCS(=O)(=O)CC3)CC[C@@]21S(=O)(=O)c1ccc(F)cc1 [Example 48, 4-[(3aR,9bR)-9b-(4-fluorobenzenesulfonyl)-7-(2-methylphenoxy)-1H,2H,3H,3aH,4H,5H,9bH-benzo[e]indole-3-carbonyl]-4-methyl-1λ^6-thiane-1,1-dione]",7.5
6,"NC(=O)N1CCC(C(=O)N2CC[C@@]3(S(=O)(=O)c4ccc(F)cc4)c4ccc(OCc5ccc(F)cc5Cl)cc4CC[C@@H]23)CC1 [Example 198, 4-[(3aR,9bR)-7-[(2-chloro-4-fluorophenyl)methoxy]-9b-(4-fluorobenzenesulfonyl)-1H,2H,3H,3aH,4H,5H,9bH-benzo[e]indole-3-carbonyl] piperidine-1-carboxamide]",19
7,"CS(=O)(=O)N[C@@H]1CCCN(C(=O)N2CC[C@@]3(S(=O)(=O)c4ccccc4)c4ccc(OCc5c(Cl)cccc5Cl)cc4CC[C@@H]23)C1 [Example 90, N-[(3R)-1-[(3aR,9bR)-9b-(benzenesulfonyl)-7-[(2,6-dichlorophenyl)methoxy]-1H,2H,3H,3aH,4H,5H,9bH-benzo[e]indole-3-carbonyl]piperidin-3-yl]methanesulfonamide]",712
8,"NS(=O)(=O)CC(=O)N1CC[C@@]2(S(=O)(=O)c3ccc(F)cc3)c3ccc(OCc4c(Cl)cccc4Cl)cc3CC[C@@H]12 [Example 122, 2-[(3aR,9bR)-7-[(2,6-dichlorophenyl)methoxy]-9b-(4-fluorobenzenesulfonyl)-1H,2H,3H,3aH,4H,5H,9bH-benzo[e]indol-3-yl]-2-oxoethane-1-sulfonamide]",127
9,"CC(=O)N1CCC(C(=O)N2CC[C@@]3(S(=O)(=O)c4ccccc4)c4ccc(OCc5c(F)cccc5Cl)cc4CC[C@@H]23)CC1 [Example 136, 1-{4-[(3aR,9bR)-9b-(benzenesulfonyl)-7-[(2-chloro-6-fluorophenyl)methoxy]-1H,2H,3H,3aH,4H,5H,9bH-benzo[e]indole-3-carbonyl]piperidin-1-yl}ethan-1-one]",16
10,[2H]C([2H])(Oc1ccc2c(c1)CC[C@H]1N(C(=O)[C@H]3CC[C@H](C(=O)O)CC3)CC[C@@]21S(=O)(=O)c1ccc(F)cc1)c1c(F)cccc1Cl [Example 222],3.9
11,"O=C(O)[C@H]1CC[C@H](C(=O)N2CC[C@@]3(S(=O)(=O)c4ccc(Cl)cc4)c4ccc(OCc5c(F)cccc5C(F)(F)F)cc4CC[C@@H]23)CC1 [Example 111, (1r,4r)-4-[(3aR,9bR)-9b-(4-chlorobenzenesulfonyl)-7-{[2-fluoro-6-(trifluoromethyl)phenyl]methoxy} -1H,2H,3H,3aH,4H,5H,9bH-benzo[e]indole-3-carbonyl]cyclohexane-1-carboxylic acid]",2.7
12,"CS(=O)(=O)CCNC(=O)N1CC[C@@]2(S(=O)(=O)c3ccccc3)c3ccc(OCc4c(Cl)cccc4Cl)cc3CC[C@@H]12 [Example 92, (3aR,9bR)-9b-(benzenesulfonyl)-7-[(2,6-dichlorophenyl)methoxy]-N-(2-methanesulfonylethyl)-1H,2H,3H,3aH,4H,5H,9bH-benzo[e]indole-3-carboxamide]",197
13,"CN1CCCC(C(=O)N2CC[C@@]3(S(=O)(=O)c4ccccc4)c4ccc(OCc5c(Cl)cccc5Cl)cc4CC[C@@H]23)C1 (stereo partly drawn) [Example 97, 3-[(3aR,9bR)-9b-(benzenesulfonyl)-7-[(2,6-dichlorophenyl)methoxy]-1H,2H,3H,3aH,4H,5H,9bH-benzo[e]indole-3-carbonyl]-1-methylpiperidine]",846
14,"NC(=O)N1CCC(C(=O)N2CC[C@@]3(S(=O)(=O)c4ccccc4)c4ccc(OCc5ccccc5)cc4CC[C@@H]23)CC1 [Example 78, 4-[(3aR,9bR)-9b-(benzenesulfonyl)-7-(benzyloxy)-1H,2H,3H,3aH,4H,5H,9bH-benzo[e]indole-3-carbonyl]piperidine-1-carboxamide]",140
15,"C[C@]1(C(=O)O)CC[C@H](C(=O)N2CC[C@@]3(S(=O)(=O)c4ccc(F)cc4)c4ccc(OCc5c(F)cccc5Cl)cc4CC[C@@H]23)CC1 [Example 21, (1r,4r)-4-[(3aR,9bR)-7-[(2-chloro-6-fluorophenyl)methoxy]-9b-(4-fluorobenzenesulfonyl)-1H,2H,3H,3aH,4H,5H,9bH-benzo[e]indole-3-carbonyl]-1-methylcyclohexane-1-carboxylic acid]",10

# Results, then the compound that gave them:
row,EC50 [nM],Compound
1,134,"O=C1CC(C(=O)N2CC[C@@]3(S(=O)(=O)c4ccccc4)c4ccc(OCc5c(F)cccc5Cl)cc4CC[C@@H]23)CN1 (stereo partly drawn) [Example 140, 4-[(3aR,9bR)-9b-(benzenesulfonyl)-7-[(2-chloro-6-fluorophenyl)methoxy]-1H,2H,3H,3aH,4H,5H,9bH-benzo[e]indole-3-carbonyl]pyrrolidin-2-one]"
2,194,"O=C(Nc1ccnnc1)N1CC[C@@]2(S(=O)(=O)c3ccccc3)c3ccc(OCc4c(Cl)cccc4Cl)cc3CC[C@@H]12 [Example 95, (3aR,9bR)-9b-(benzenesulfonyl)-7-[(2,6-dichlorophenyl)methoxy]-N-(pyridazin-4-yl)-1H,2H,3H,3aH,4H,5H,9bH-benzo[e]indole-3-carboxamide]"
3,1.3,"O=C(C1CCS(=O)(=O)CC1)N1CC[C@@]2(S(=O)(=O)c3ccc(F)cc3)c3ccc(Sc4c(Cl)cccc4Cl)cc3CC[C@@H]12 [Example 118, 4-[(3aR,9bR)-7-[(2,6-dichlorophenyl)sulfanyl]-9b-(4-fluorobenzenesulfonyl)-1H,2H,3H,3aH,4H,5H,9bH-benzo[e]indole-3-carbonyl]-1λ^6-thiane-1,1-dione]"
4,18,"O=C(O)[C@H]1CC[C@H](C(=O)N2CC[C@@]3(S(=O)(=O)c4ccc(F)cc4)c4ccc(OCc5ccccc5)cc4CC[C@@H]23)CC1 [Example 120, (1r,4r)-4-[(3aR,9bR)-7-(benzyloxy)-9b-(4-fluorobenzenesulfonyl)-1H,2H,3H,3aH,4H,5H,9bH-benzo[e]indole-3-carbonyl]cyclohexane-1-carboxylic acid]"
5,53,"O=C(O)[C@H]1CC[C@H](C(=O)N2CC[C@@]3(S(=O)(=O)c4ccc(F)cc4)c4ccc(OCc5ccncc5Cl)cc4CC[C@@H]23)CC1 [Example 114, (1r,4r)-4-[(3aR,9bR)-7-[(3-chloropyridin-4-yl)methoxy]-9b-(4-fluorobenzenesulfonyl)-1H,2H,3H,3aH,4H,5H,9bH-benzo[e]indole-3-carbonyl]cyclohexane-1-carboxylic acid]"
6,301,"O=C(N1CC(O)C1)N1CC[C@@]2(S(=O)(=O)c3ccccc3)c3ccc(OCc4c(Cl)cccc4Cl)cc3CC[C@@H]12 [Example 88, 1-[(3aR,9bR)-9b-(benzenesulfonyl)-7-[(2,6-dichlorophenyl)methoxy]-1H,2H,3H,3aH,4H,5H,9bH-benzo[e]indole-3-carbonyl] azetidin-3-ol]"
7,17,"O=C(C1CCS(=O)(=O)CC1)N1CC[C@@]2(S(=O)(=O)c3ccccc3)c3ccc(OCc4c(F)cccc4F)cc3CC[C@@H]12 [Example 133, 4-[(3aR,9bR)-9b-(benzenesulfonyl)-7-[(2,6-difluorophenyl)methoxy] -1H,2H,3H,3aH,4H,5H,9bH-benzo[e]indole-3-carbonyl]-1λ^6-thiane-1,1-dione]"
8,17,"C[C@@H]1C[C@@H](C(=O)O)CC[C@@H]1C(=O)N1CC[C@@]2(S(=O)(=O)c3ccc(F)cc3)c3ccc(OCc4c(F)cccc4Cl)cc3CC[C@@H]12 [Example 22, (1S,3R,4S)-4-[(3aR,9bR)-7-[(2-chloro-6-fluorophenyl)methoxy]-9b-(4-fluorobenzenesulfonyl)-1H,2H,3H,3aH,4H,5H9bH-benzo[e]indole-3-carbonyl]-3-methylcyclohexane-1-carboxylic acid]"
9,99,"O=C(O)[C@H]1CC[C@](O)(C(=O)N2CC[C@@]3(S(=O)(=O)c4ccc(F)cc4)c4ccc(OCc5c(F)cccc5C(F)(F)F)cc4CC[C@@H]23)CC1 [Example 27, (1 s,4 s)-4-[(3aR,9bR)-7-{ [2-fluoro-6-(trifluoromethyl)phenyl]methoxy} -9b-(4-fluorobenzenesulfonyl)-1H,2H,3H,3aH,4H,5H,9bH-benzo[e]indole-3-carbonyl] -4-hydroxycyclohexane-1-carboxylic acid]"
